Measured values reported in article PMC6443668, “Chiral phenoxyacetic acid analogues inhibit colon cancer cell proliferation acting as PPARγ partial agonists” (Scientific Reports, 2019).
“And” between values parts separate entries of the source, which are not always exact repeats. Equal entries are not always repeated. Where two headings read alike, the source gives them in different places.

Columns and labels:
PPARγ1 = biological target: T1, PPARγ1 (Homo sapiens, UniProt P37231); test: PPRE-Luciferase reporter transactivation in HEK293 cells expressing PPARγ1; type: cell-based; conditions: for Efficacy: PPARγ transactivation with respect to the full agonist RGZ taken as 100%; for EC50: PPARγ transactivation, PPRE-Luc reporter, HEK293 expressing PPARγ1, 24 hs treatment
T1 construct: a fixed and higher amount of an exogenous, full length PPARγ1; expressed in transfected cells
T1 sequence (P37231 1-477 isoform P37231-2): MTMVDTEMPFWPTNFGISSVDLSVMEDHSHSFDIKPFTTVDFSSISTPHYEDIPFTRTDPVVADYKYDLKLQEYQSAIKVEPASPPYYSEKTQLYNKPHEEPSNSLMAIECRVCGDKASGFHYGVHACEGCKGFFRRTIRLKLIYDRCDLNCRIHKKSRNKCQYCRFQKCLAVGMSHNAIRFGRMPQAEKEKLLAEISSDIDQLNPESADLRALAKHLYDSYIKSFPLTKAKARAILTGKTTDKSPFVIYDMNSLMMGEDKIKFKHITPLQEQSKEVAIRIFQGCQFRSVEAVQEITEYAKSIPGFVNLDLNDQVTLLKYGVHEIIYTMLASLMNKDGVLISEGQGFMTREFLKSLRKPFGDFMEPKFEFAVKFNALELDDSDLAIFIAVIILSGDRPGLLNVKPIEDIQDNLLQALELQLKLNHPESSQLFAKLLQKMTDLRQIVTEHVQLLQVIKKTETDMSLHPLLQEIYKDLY
Method: These cells were selected as a model system because they express low levels of the endogenous PPAR subtypes and a fixed and higher amount of an exogenous, full length PPARγ1; the differences in luciferase activity can, thus, be referred to PPARγ1 and to the different ligands used. Twenty-four hours after transfection, cells were treated for additional 24 hs with increasing doses of each compound (Table 2).
HEK293 cells that stably express an exogenous Flag-tagged PPARγ1 from a transfected PCDNA-3 vector carrying a complete PPARγ cDNA were used for transfection experiments. PPRE-Luc plasmid contains a luciferase reporter gene whose transcription is driven by the herpes simplex thymidine kinase (TK) promoter including three copies of the PPRE designed on the sequence of Acyl-CoA oxidase gene. […] The day before transfection, HEK293 stably expressing FLAG-PPARγ1 were plated in 12-well plates to reach 70% confluence. After 24 hs, growth medium was removed and substitute with OPTI-MEM, in absence of serum and antibiotics, and cells were transfected with the luciferase reporter gene (PPRE-Luc) using lipofectamine 2000 reagent as described. […] Transfection assays were performed in triplicate and the resulting transcriptional activities measured by luciferase assay. The values were normalized by β-galactosidase assay and the average value for each triplicate was calculated.

HT-29 cells [1] = test: Viability / proliferation assay in HT-29 cells (cell counting); conditions: for Residual viability: remaining surviving cells
Excerpt: We then evaluated the antiproliferative potential of the compounds by carrying out viability assays in HT-29, a CRC-derived cell line selected as it expresses substantial amounts of PPARγ1 with respect to the α and β/δ subtypes.
After treatment, the cells were washed with PBS, trypsinized and collected in culture medium. Cells were counted by means of a Burker’s hemocytometer and by automated cell counter (Roche Applied, Penzberg, Germany)[60].
Proliferation assay carried out on HT-29 cells treated or not with the indicated compounds at different concentrations ranging from 1 to 10 µM for 48 hs. HT-29 cells exposed or not to these compounds were harvested, washed with PBS, trypsinized and collected in culture medium. Cell counting was performed by means of a Burker’s hemocytometer. Three counts for each well were made and the mean value and the standard deviation were calculated.

p21^waf1/cip1 [2] = test: Western blotting of p21waf1/cip1 in parental RKO cells (no endogenous PPARG); type: cell-based, human; conditions: 10 µM, 48 hs
Excerpt: (§1) RKO cells were taken as control for assessing possible effects due to other PPAR receptors expressed at low levels in this cell or to PPARγ-independent effects elicited by GW9662, as reported.
(§2) Figure 4 PPARγ-dependent antiproliferative effect in CRC-derived RKO cells. Western blotting analysis of p21^waf1/cip1 expression in total protein extracts from CRC-derived RKO cells (A) and its derived clone overexpressing an ectopic PPARγ1 (B) using an anti-p21^waf1/cip1 antibody. An anti-β-actin antibody was used as a control for protein loading. The bar graphs represent the mean ± SD of […] of at least 3 independent experiments. *p ≤ 0.05, **p ≤ 0.01 compared to the control.
(§3) Total extracts from treated and untreated cells were obtained by lysis in Ripa buffer (150 mM NaCl, 50 mM Tris-HCl, pH 7.6, 10 mM EDTA, 1% NP-40) containing also a protease inhibitors cocktail and then centrifugated at 17,000 RCF for 10 min, at 4 °C. Total proteins in the supernatant were quantified and 80 μg of each sample were loaded on SDS-PAGE. Western blotting assays were carried out as previously reported.

β-catenin = test: Western blotting of β-catenin in HT-29 cells; type: cell-based, human; conditions: 10 µM, 48 hs
Method: (§4) Proliferating HT-29 cells were treated for 48 hs with 10 µM of the indicated compounds. Specific antibodies against cyclin D1 (A), c-Myc (B), β-catenin (C) and PPARγ (D) respectively, were used in Western blotting analysis. An anti-β-actin antibody was used as a control for protein loading. The graphs of (A) and (B) represent the means ± SD of three independent experiments. **p ≤ 0.01, ***p ≤ 0.005 compared to the control. The bar graphs of (C,D) are the means ± SD of three independent experiments. *p ≤ 0.05 compared to the control. […] Luciferase activity is reported as fold induction after normalization to β-galactosidase activity used as control of transfection efficiency. The graph represents the mean ± SD of two independent experiments performed in triplicate. *p ≤ 0.05 compared to LiCl exposure.
(§5) Indeed, cyclin D1 and c-Myc are target genes[38],[39] and, for these reasons, we evaluated c-Myc levels in untreated and treated HT-29 cells. […] Along this reasoning, we investigated β-catenin levels in the same experimental conditions. […]
as §3, with “Western blotting assays were carried out as previously reported.” left out

p21^waf1/cip1 [3] = test: Western blotting of p21waf1/cip1 in HT-29 cells; type: cell-based, human; conditions: 10 µM, 48 hs
Method: (§6) Data are means ± SD of two independent experiments. *p ≤ 0.05, **p ≤ 0.01 compared to the control. (B) Proliferating HT-29 cells were treated or not for 48 hs with 10 µM of the indicated compounds. Protein extracts were prepared and assessed for p21^waf1/cip1 expression in Western blotting analysis. β-Actin was used for protein load normalization. The bar graphs are the mean ± SD of three independent experiments. **p ≤ 0.01 compared to the control.
(§7) To better characterize the growth inhibition elicited by (R,S)-3, (S)-3 and (R,S)-7, we examined changes in the expression of proteins involved in cell cycle control (Figs 1B and 2A). […] The results paralleled those of the corresponding proteins and all together correlated with the flow cytometric data obtained in the same experimental conditions as reported in Fig. 1.
as §3

HT-29 cells [4] = test: Annexin V-FITC / propidium iodide apoptosis flow cytometry in HT-29 cells; type: cell-based, human; conditions: 10 µM, 48 hs
Method: (§8) (B) Early (Ann+/PI−) and late (Ann+/PI+) apoptotic cell populations were evaluated and reported in the graphic representation. The bar graphs are the means ± SD of three independent experiments. *p ≤ 0.05, **p ≤ 0.01, ***p ≤ 0.005 compared to the control. […] An anti-β-actin antibody was used as a control for protein loading. Significance is indicated as *p ≤ 0.05 compared to only vehicle. […] It is listed because a value is printed with its label.
(§9) HT-29 cells were plated at similar confluency and synchronized by a 48 h serum deprivation in 0.1% FBS. […] At same time, another aliquot of cells was allowed to grow again in the complete medium containing 0,1% DMSO for the same times and was used as control. After treatment, DNA cell content was evaluated by FACS analysis as previously described. Evaluation of apoptotic cells was performed by staining cell treated or not with 10 μM of the indicated compounds for 48 hs with Annexin5-V-Fitc and propidium iodide. All flow cytometry results were analyzed by FACSuite Software.

p21^waf1/cip1 [5] = test: Western blotting of p21waf1/cip1 in RKO cells stably transfected with PPARG1; type: cell-based, human
Excerpt: as §1, §2, §3

caspase 3 = test: Western blotting of caspase 3 in HT-29 cells; type: cell-based, human; conditions: 10 µM, 48 hs
Method: as §8, §3

HT-29 cells [6] = test: Cell cycle analysis by flow cytometry (propidium iodide) in HT-29 cells; type: cell-based, human; conditions: 1 to 25 µM, 48 hs, FACS
Method: We then investigated the cell cycle changes underlying the growth inhibition caused by (R,S)-3, (S)-3 and (R,S)-7 treatment. To this goal, HT-29 cells were cultured in proliferating medium for 24 hs and exposed for additional 48 hs to a medium containing different concentrations of the three compounds.
as §6, §9

β-catenin/TCF pathway = test: Top-FLASH reporter luciferase assay in LiCl-induced HEK-293 cells; type: cell-based; conditions: HEK-293, Top-FLASH, 20 mM LiCl plus 1 µM compound, 24 hs, relative to LiCl alone
Method: as §4
To definitely confirm that (R,S)-3 and (S)-3 negatively affect c-Myc and cyclin D1 protein levels through down-regulation of their own gene transcription, we performed the TOP-flash reporter luciferase assay in LiCl-induced HEK-293 cells. […]
The Top-FLASH reporter plasmid containing three copies of TCF binding sites was transiently transfected into HEK293 cells with Lipofectamine 2000 (Invitrogen, Carlsbad, CA, USA) in 24-well plates. […] Luciferase activity was measured after 24 h of compounds treatment and normalized to β-galactosidase. […]

c-Myc = test: Western blotting of c-Myc in HT-29 cells; type: cell-based, human; conditions: 10 µM, 48 hs
Method: as §4, §5
as §3, with “Western blotting assays were carried out as previously reported.” left out

cyclin D1 = test: Western blotting of cyclin D1 in HT-29 cells; type: cell-based, human; conditions: 10 µM, 48 hs
Method: as §7
as §4, with “The graph represents the mean ± SD of two independent experiments performed in triplicate. *p ≤ 0.05 compared to LiCl exposure.” left out
as §3, with “Western blotting assays were carried out as previously reported.” left out

[7] = read-out: Proliferation IC50, HT-29 cells, concentration range 1 to 25 µM
[8] = Homo sapiens, HT-29, read-out: Proliferation IC50

| Structure (SMILES) | Efficacy (PPARγ1) | EC50 (PPARγ1) [nM] | Residual viability (HT-29 cells [1]; HT-29 cells) [%] | IC50 (HT-29 cells [1]; [7]) [µM] | p21waf1/cip1 protein expression (p21^waf1/cip1 [3]) | Apoptosis induction (HT-29 cells [4]) | IC50 (HT-29 cells [1]; [8]) [µM] | Luciferase activity remaining on co-treatment with LiCl (β-catenin/TCF pathway) | cyclin D1 protein level (cyclin D1) | further results |
| --- | --- | --- | --- | --- | --- | --- | --- | --- | --- | --- |
| O=C(O)C(CCCc1ccccc1)Oc1ccc(Cl)cc1 (racemic) [(R,S)-2] | 48 ± 2.1% | 540 ± 100 | 70 ± 2.5 | 12.1 ± 1.2 | – | – | – | – | – | – |
| O=C(O)C(CCCCc1ccccc1)Oc1ccc(Cl)cc1 (racemic) [(R,S)-4] | 60 ± 1.1% | 350 ± 70 | 60 ± 0.5 | 10.1 ± 0.4 | – | – | – | – | – | – |
| O=C(O)[C@@H](CCc1ccccc1)Oc1ccc(Cl)cc1 [(R)-1] | 45 ± 1.3% | 640 ± 60 | 77 ± 3.1 | 19.7 ± 1.7 | – | – | – | – | – | – |
| O=C(O)[C@H](CCCc1ccc(Cl)cc1)Oc1ccc(Cl)cc1 [(S)-3] | 55% and 55 ± 1.2% | 400 ± 50 | 31 ± 1.3 | – | robust increase | stimulated apoptosis | 4.8 ± 0.35 | about 60% | reduction more evident | p21waf1/cip1 expression (p21^waf1/cip1 [2]): no p21^waf1/cip1 variations; β-catenin protein level (β-catenin): reduction; p21waf1/cip1 expression (p21^waf1/cip1 [5]; RKO clone expressing exogenous PPARγ1, 10 µM, 48 hs): induced accumulation; Caspase 3 activation (precursor reduced, cleaved form increased) (caspase 3): strongest effect; Cell cycle changes (HT-29 cells [6]): significant increase of cells in the sub G0/G1 phase; c-Myc protein level (c-Myc): reduction |
| O=C(Nc1ccccc1)c1cc([N+](=O)[O-])ccc1Cl [GW9662, reference compound] | – | – | – | – | – | – | – | – | – | Effect of the antagonist on compound-induced p21waf1/cip1 accumulation (p21^waf1/cip1 [5]; RKO clone expressing PPARγ1, co-treatment with (R,S)-3, (S)-3 or (R,S)-7): reverted the effect |
| CN(CCOc1ccc(CC2SC(=O)NC2=O)cc1)c1ccccn1 (centres unmarked) [RGZ, rosiglitazone, reference compound] | – | – | – | – | slight | stimulated apoptosis | 9.8 ± 0.4 | 80% | reduction | – |
